Values of other authors in patent publication US6150391A, “Diazabicyclo-octane derivatives as 5-HT receptor ligands” (Merck Sharp & Dohme Ltd., priority 1996, dated 2000).

Key:
[1] = test system: human 5-HT1D.sbsb.α and 5-HT1D.sbsb.β receptor subtypes; settings: cf WO-A-91/17174, Table 1
[2] = therapeutic doses

- discrimination between the human 5-HT1D.sbsb.α and 5-HT1D.sbsb.β receptor subtypes [1]: barely discriminates
Compound: CNS(=O)(=O)Cc1ccc2[nH]cc(CCN(C)C)c2c1 [sumatriptan]
- adverse events on administration to humans [2]: certain adverse cardiovascular events
